# Data: patent US8999981B2, “3-amido-pyrrolo[3,4-C]pyrazole-5(1H, 4H,6H) carbaldehyde derivatives” (Pfizer Inc., priority 2007, dated 2015)
# Target: Protein Kinase C beta 2 (PKCβII) (Homo sapiens (Human), UniProt P05771)
# Test: PKCβII coupled PK/LDH spectrophotometric kinase assay
# Type: biochemical
# Settings: apparent Ki, ATP-competitive model (Morrison equation); 0.1 mM ATP, 30° C.; read-out: PKCb Ki
# Protocol: This transfer is coupled to the oxidation of β-NADH through the activities of Pyruvate Kinase (PK) and Lactate Dehydrogenase (LDH). β-NADH conversion to NAD+ is monitored by the decrease in absorbance at 340 nm (e=6.22 cm^−1 mM^−1) using a Molecular Devices SPECTRA max PLUS spectrophotometer.
# A typical assay was carried out on a 96-well, clear microtiter plate in a Molecular Devices spectrophotometer for 20 minutes at 30° C. in 0.1 mL of assay buffer containing 50 mM HEPES, pH 7.4, 5 nM PKC, 23 units of pyruvate kinase, 33 units of lactate dehydrogenase, 0.15 mM peptide, 0.1 mM ATP, 1 mM DTT, 4 mM PEP, 8 mM MgCl2, 0.3 mM NADH, 60 mM CaCl2, 10 mg/mL PS, 50 ng/mL PMA, 7.5% DMSO and from about 10,000 nM to 0.169 nM compound inhibitor. Stock solutions of 3-sn-phosphatidyl-L-serine (PS) and phorbol-12-myristate-13-acetate (PMA) were sonicated for 30 seconds just prior to addition to assay buffer and assays were initiated by the addition of 100 μM ATP.
# Enzyme turnover values (kcat) were calculated according to […], where [E] is the total enzyme concentration. Enzyme inhibition constants (apparent K values) were determined by fitting initial velocities at variable inhibitor concentrations to a model for ATP competitive inhibition based on the Morrison equation). Morrison, J. F., Biochim. Biophys Acta 185: 269-286 (1969).
# Chain of Protein Kinase C beta 2 (PKCβII) (P05771 other isoform, or with tags, fused parts or gaps): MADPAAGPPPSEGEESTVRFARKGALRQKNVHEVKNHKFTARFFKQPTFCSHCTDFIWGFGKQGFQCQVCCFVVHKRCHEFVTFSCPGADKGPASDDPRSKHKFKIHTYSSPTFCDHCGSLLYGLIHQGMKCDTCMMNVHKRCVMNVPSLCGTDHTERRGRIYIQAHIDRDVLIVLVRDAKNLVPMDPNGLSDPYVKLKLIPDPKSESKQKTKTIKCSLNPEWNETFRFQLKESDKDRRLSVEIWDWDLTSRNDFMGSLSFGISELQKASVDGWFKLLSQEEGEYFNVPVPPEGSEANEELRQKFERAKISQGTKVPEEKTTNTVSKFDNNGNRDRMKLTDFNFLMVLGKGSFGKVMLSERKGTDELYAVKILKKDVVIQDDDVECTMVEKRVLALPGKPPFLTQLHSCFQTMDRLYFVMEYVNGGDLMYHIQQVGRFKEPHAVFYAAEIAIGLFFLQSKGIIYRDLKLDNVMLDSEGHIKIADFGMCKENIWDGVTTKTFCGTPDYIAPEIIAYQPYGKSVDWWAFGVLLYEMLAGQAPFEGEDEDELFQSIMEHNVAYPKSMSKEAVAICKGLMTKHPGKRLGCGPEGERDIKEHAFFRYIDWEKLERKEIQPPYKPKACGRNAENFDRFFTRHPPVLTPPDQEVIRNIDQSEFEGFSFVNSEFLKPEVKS
row,Ki,SMILES
1,< 10 nM,C[C@@H]1CN(C(=O)N2Cc3c(NC(=O)c4ccc(F)cn4)n[nH]c3C2(C)C)[C@@H](C)CN1C1CCOCC1 [Example A149]
2,42 nM,C[C@H]1CN(C)[C@H](CCO)CN1C(=O)N1Cc2c(NC(=O)c3ccccn3)n[nH]c2C1(C)C [Example A150]
3,152 nM,C[C@H]1CN(C)[C@@H](CCO)CN1C(=O)N1Cc2c(NC(=O)c3ccccn3)n[nH]c2C1(C)C [Example A151]
4,76.2 nM,C[C@@H]1CN(C(=O)N2Cc3c(NC(=O)c4ccccn4)n[nH]c3C23CC3)[C@@H](C)CN1CC1CCOCC1 [Example A152]
5,37 nM,C[C@@H]1CN(C(=O)N2Cc3c(NC(=O)c4ccccn4)n[nH]c3C2(C)C)[C@@H](C)CN1CC1(C)COC1 [Example A153]
6,25.1 nM,C[C@H](CCO)N1C[C@H](C)N(C(=O)N2Cc3c(NC(=O)c4ccccn4)n[nH]c3C2(C)C)C[C@H]1C [Example A154]
7,43.3 nM,C[C@@H]1CN(C(=O)N2Cc3c(NC(=O)c4ccccn4)n[nH]c3C2(C)C)[C@@H](C)CN1[C@@H](C)CCO [Example A155]
8,108 nM,C[C@@H]1CN(C(=O)N2Cc3c(NC(=O)c4ccccn4)n[nH]c3C2(C)C)[C@@H](C)CN1CCOCCO [Example A156]
9,24.9 nM,Cc1nc(C)c(C(=O)Nc2n[nH]c3c2CN(C(=O)N2C[C@@H](C)N(CCCO)C[C@@H]2C)C3(C)C)o1 [Example A160]
10,38.8 nM,C[C@@H]1CN(C(=O)N2Cc3c(NC(=O)c4ccc(F)cn4)n[nH]c3C2(C)C)[C@@H](C)CN1CCO [Example A161]
11,21.7 nM,C[C@@H]1CN(C(=O)N2Cc3c(NC(=O)c4ccc(F)cn4)n[nH]c3C2(C)C)[C@@H](C)CN1CCCO [Example A162]
12,24.5 nM,COCCCN1C[C@H](C)N(C(=O)N2Cc3c(NC(=O)c4ccc(F)cn4)n[nH]c3C2(C)C)C[C@H]1C [Example A163]
13,56.9 nM,COCCN1C[C@H](C)N(C(=O)N2Cc3c(NC(=O)c4ccc(F)cn4)n[nH]c3C2(C)C)C[C@H]1C [Example A164]
14,75.3 nM,"CC1(C)c2n[nH]c(NC(=O)c3ccccn3)c2CN1C(=O)C1(F)CCN(C2CCC2)CC1 [Example B1, Pyridine-2-carboxylic acid [5-(1-cyclobutyl-4-fluoro-piperidine-4-carbonyl)-6,6-dimethyl-1,4,5,6-tetrahydro-pyrrolo[3,4-c]pyrazol-3-yl]-amide]"
15,89.8 nM,"CC1(C)c2[nH]nc(NC(=O)c3ccccn3)c2CN1C(=O)C1(F)CCN(C2CCOCC2)CC1 [Example B2, Pyridine-2-carboxylic acid {5-[4-fluoro-1-(tetrahydro-pyran-4-yl)-piperidine-4-carbonyl]-6,6-dimethyl-1,4,5,6-tetrahydro-pyrrolo[3,4-c]pyrazol-3-yl}-amide]"
16,50.3 nM,Cc1nc(C)c(C(=O)Nc2n[nH]c3c2CN(C(=O)N2C[C@@H](C)N(C)C[C@@H]2C)C3(C)C)o1 [Example C2]
17,35.1 nM,Cc1nc(C(=O)Nc2n[nH]c3c2CN(C(=O)N2C[C@@H](C)N(C)C[C@@H]2C)C3(C)C)cs1 [Example C3]
18,45.1 nM,Cc1ocnc1C(=O)Nc1n[nH]c2c1CN(C(=O)N1C[C@@H](C)N(C)C[C@@H]1C)C2(C)C [Example C4]
19,46.5 nM,Cc1ncoc1C(=O)Nc1n[nH]c2c1CN(C(=O)N1C[C@@H](C)N(C)C[C@@H]1C)C2(C)C [Example C5]
20,25.7 nM,CCc1nc(C)c(C(=O)Nc2n[nH]c3c2CN(C(=O)N2C[C@@H](C)N(C)C[C@@H]2C)C3(C)C)o1 [Example C6]

row,Ki,SMILES
1,66.4 nM,CCc1ocnc1C(=O)Nc1n[nH]c2c1CN(C(=O)N1C[C@@H](C)N(C)C[C@@H]1C)C2(C)C [Example C7]
2,25 nM,C[C@@H]1CN(C(=O)N2Cc3c(NC(=O)c4coc(C5CC5)n4)n[nH]c3C2(C)C)[C@@H](C)CN1C [Example C8]
3,72.9 nM,Cc1cnc(C(=O)Nc2n[nH]c3c2CN(C(=O)N2C[C@@H]4CCCN4C[C@@H]2C)C3(C)C)cn1 [Example E2]
4,5.51 nM,C[C@H]1CN2CCC[C@H]2CN1C(=O)N1Cc2c(NC(=O)c3cc4ccccc4cn3)n[nH]c2C1(C)C [Example E3]
5,6.17 nM,C[C@H]1CN2CCC[C@H]2CN1C(=O)N1Cc2c(NC(=O)c3ccc4cnccc4n3)n[nH]c2C1(C)C [Example E4]
6,6.81 nM,C[C@H]1CN2CCC[C@H]2CN1C(=O)N1Cc2c(NC(=O)c3cc(C4CC4)n[nH]3)n[nH]c2C1(C)C [Example E6]
7,12.5 nM,C[C@H]1CN2CCC[C@H]2CN1C(=O)N1Cc2c(NC(=O)c3cnc4ccccc4n3)n[nH]c2C1(C)C [Example E7]
8,118 nM,C[C@H]1CN2CCC[C@H]2CN1C(=O)N1Cc2c(NC(=O)c3ccnn3C)n[nH]c2C1(C)C [Example E8]
9,31.3 nM,Cc1nc(C(=O)Nc2n[nH]c3c2CN(C(=O)N2C[C@@H]4CCCN4C[C@@H]2C)C3(C)C)cs1 [Example E9]
10,10.6 nM,C[C@H]1CN2CCC[C@H]2CN1C(=O)N1Cc2c(NC(=O)c3cc(C(C)(C)C)nn3C)n[nH]c2C1(C)C [Example E10]
11,28.9 nM,Cc1nc(C)c(C(=O)Nc2n[nH]c3c2CN(C(=O)N2C[C@@H]4CCCN4C[C@@H]2C)C3(C)C)o1 [Example E11]
12,58.6 nM,C[C@H]1CN2CCC[C@H]2CN1C(=O)N1Cc2c(NC(=O)c3cc(C4CC4)on3)n[nH]c2C1(C)C [Example E12]
13,135 nM,C[C@H]1CN2CCC[C@H]2CN1C(=O)N1Cc2c(NC(=O)c3c(F)ccc(F)c3F)n[nH]c2C1(C)C [Example E13]
14,22.4 nM,"CCc1nc(C)c(C(=O)Nc2n[nH]c3c2CN(C(=O)N2C[C@@H](C)N(CC4CCOCC4)C[C@@H]2C)C3(C)C)o1 [Example F1, N-(5-{[(2S,5R)-2,5-dimethyl-4-(tetrahydro-2H-pyran-4-ylmethyl)piperazin-1-yl]carbonyl}-6,6-dimethyl-1,4,5,6-tetrahydropyrrolo[3,4-c]pyrazol-3-yl)-2-ethyl-4-methyl-1,3-oxazole-5-carboxamide]"
15,78.4 nM,COCCCN1C[C@H](C)N(C(=O)N2Cc3c(NC(=O)c4cc(C)nc(C)n4)n[nH]c3C2(C)C)C[C@H]1C [Example F2]
16,625 nM,COCCCN1C[C@H](C)N(C(=O)N2Cc3c(NC(=O)c4cnccn4)n[nH]c3C2(C)C)C[C@H]1C [Example F3]
17,37.3 nM,CCc1cc(C(=O)Nc2n[nH]c3c2CN(C(=O)N2C[C@@H](C)N(CCCOC)C[C@@H]2C)C3(C)C)n(C)n1 [Example F4]
18,71.8 nM,COCCCN1C[C@H](C)N(C(=O)N2Cc3c(NC(=O)c4oc(C)cc4C)n[nH]c3C2(C)C)C[C@H]1C [Example F5]
19,83.6 nM,CCc1nc(C)c(C(=O)Nc2n[nH]c3c2CN(C(=O)N2C[C@@H](C)N(CCCOC)C[C@@H]2C)C3(C)C)o1 [Example F6]
20,67.1 nM,COCCCN1C[C@H](C)N(C(=O)N2Cc3c(NC(=O)Cc4c(C)noc4C)n[nH]c3C2(C)C)C[C@H]1C [Example F7]

row,SMILES,Ki
1,C[C@@H]1CN(C(=O)N2Cc3c(NC(=O)c4ccccn4)n[nH]c3C2(C)C)[C@@H](C)CN1Cc1cocn1 [Example A148],48.3 nM
2,CCc1cc(C(=O)Nc2n[nH]c3c2CN(C(=O)N2C[C@@H]4CCCN4C[C@@H]2C)C3(C)C)no1 [Example E1],61.6 nM
3,COc1cccc(C(=O)Nc2n[nH]c3c2CN(C(=O)N2C[C@@H]4CCCN4C[C@@H]2C)C3(C)C)c1 [Example E5],37.5 nM
4,C[C@@H]1CN(C(=O)N2Cc3c(NC(=O)c4cn(C)cn4)n[nH]c3C2(C)C)[C@@H](C)CN1CC1CCOCC1 [Example E14],156 nM
